15 compounds from PubChem BioAssay (NCI) can be followed below.

Several values for one entry are separate records, joined by “and”; a condition that tells them apart may be missing. Identical values can stand only once.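 Five concentrations, 48 hours, 96-well plates. Here, GI50 denotes the concentration required for 50% inhibition of growth. At the TGI there is no net growth.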

Common to all, as to test: inhibition of tumour cell growth, NCI panel, 48 h
Assay [1] has as its system A549 NSCLC.
The subject of assay [2] is COLO 205 colon.
Assay [3] deals with HS 578T breast.
The subject of assay [4] is M14 melanoma.
The test system of assay [5] is MOLT-4 leukemia.
The subject of assay [6] is NCI-H226 lung.
Assay [7] has as its system OVCAR-8 ovarian.
The subject of assay [8] is PC-3 prostate.
Assay [9] relates to SK-MEL-28 melanoma.
In assay [10] the test system is SK-MEL-5 melanoma.

`O=C(NC(c1ccccc1)C(O)C(=O)OCc1ccc2c(c1)C(=O)c1ccccc1C2=O)c1ccccc1` (centres undefined): the TGI in assay [1] is 54 µM; in assay [2], greater than 100 µM; in assay [3], greater than 100 µM; in assay [4] it was greater than 80.5 µM; in assay [5] it was greater than 100 µM; in assay [6], 18.7 µM. In addition, the TGI in [7] was 41 µM; in assay [8], 42.1 µM; in assay [9], greater than 95.6 µM; in assay [10], 40.3 µM.
On to `CC(C)(O)C1CC(=O)C(C)(C2C(O)CC3(C)C4CC=C5C(CCC(O)C5(C)C)C4(C)C(=O)CC23C)O1` (centres undefined), for which the TGI in assay [1], in assay [2], in assay [3], in [4], in assay [5] and in assay [6] was greater than 100 µM each time. In addition, the TGI in assay [7], in assay [8], in assay [9] and in [10] was greater than 100 µM in each case.
On to `N#CC1=C(N)Oc2c(ccc3ccccc23)C1c1ccccc1Cl` (centres undefined), for which the GI50 in [1] is 0.476 µM; in assay [2], 0.362 µM; in assay [3], 0.226 µM; in assay [4], 0.188 µM; in [5], 0.447 µM; in assay [6], 1.52 µM. For the same compound, the GI50 was 0.542 µM in assay [7], 0.317 µM in [8], 1.92 µM in assay [9] and 0.487 µM in [10]. The TGI was determined as 26.7 µM in [1]; 12.9 µM in assay [2]; 2.94 µM in assay [3]; 3.39 µM in assay [4]; 17.8 µM in [5]; 13.2 µM in [6]. The TGI was greater than 57.7 µM in [7], 16.2 µM in assay [8], 22.9 µM in assay [9] and 4.87 µM in assay [10].
On to `Cc1cccc(NC(=O)c2sc3nc4c(cc3c2N)CCC4)c1C`, for which the GI50 was 0.453 µM in assay [1]; 0.361 µM in [2]; 0.486 µM in assay [3]; 0.236 µM in [4]; 0.576 µM in assay [5]; 2.65 µM in [6]. In addition, the GI50 is 0.427 µM in assay [7], 0.369 µM in assay [8], 0.803 µM in assay [9] and 0.268 µM in assay [10]. For the same compound, the TGI in [1] is 13.5 µM; in assay [2], 1.97 µM; in assay [3], 16 µM; in [4], 2.4 µM; in assay [5], greater than 100 µM; in assay [6], 36.8 µM. Also, the TGI was 16.6 µM in assay [7], 15.7 µM in assay [8], 39.6 µM in assay [9] and 11.1 µM in assay [10].
Take `COc1c(C)cnc(Cn2cnc3c(Cl)nc(N)nc32)c1C`: the GI50 in [1] is 0.179 µM; in assay [2] it was 0.218 µM; in assay [3], 3.53 µM; in assay [4] it was 0.478 µM; in assay [5] it was 0.281 µM; in [6] it was 0.594 µM. Moreover, the GI50 in assay [7] is 0.323 µM; in [8] it was 0.359 µM; in assay [9] it was 0.546 µM; in [10] it was 0.557 µM. In addition, the TGI in assay [1], in [3], in assay [4], in [5], in assay [6] and in assay [7] was greater than 100 µM each time. The results for the TGI in [8], in assay [9] and in assay [10] were greater than 100 µM, greater than 83.4 µM and 15.9 µM, respectively.
`Cc1nc2cc(NC(=O)CN3CCN(CCN4C(=O)c5cccc6cccc(c56)C4=O)CC3)ccc2s1`: the GI50 was 4.14 µM in [1]; 4.46 µM in assay [2]; 6.53 µM in assay [3]; 8.76 µM in [4]; 2.52 µM in assay [5]; 4.67 µM in assay [6]. Moreover, the GI50 in assay [7] was 2.77 µM; in [8], 4.5 µM; in assay [9], 11.1 µM; in assay [10] it was 2.73 µM. In addition, the TGI in assay [1] was determined as 19.2 µM; in assay [2], 89.6 µM; in [3], 52.5 µM; in assay [4] it was 23 µM; in assay [5] it was 22.2 µM; in [6], 73.9 µM. Also, the TGI in assay [7] was 19.4 µM; in assay [8], greater than 100 µM; in [9], 23.1 µM; in assay [10], 10.9 µM.
As for `COc1cc2c(c(OC)c1OC)-c1c(c3ccc([N+](=O)[O-])cc3c(=O)n1CCCN=[N+]=[N-])C2=O`, the GI50 in [1] was 0.36 µM; in [2] it was greater than 100 µM; in assay [3], 12.2 µM; in assay [4], 34.4 µM; in [5], greater than 100 µM; in assay [6] it was 28.4 µM. Besides, the GI50 is 13.6 µM in assay [7], greater than 100 µM in assay [8], greater than 100 µM in assay [9] and greater than 100 µM in assay [10]. Moreover, the TGI was greater than 100 µM in [1]; greater than 100 µM in assay [2]; greater than 100 µM in assay [3]; greater than 100 µM in assay [4]; greater than 100 µM in [5]; 71.8 µM in [6]. The TGI in assay [7] is 68.8 µM; in assay [8], greater than 100 µM; in [9], greater than 100 µM; in [10], greater than 100 µM.
As to `C#Cc1cccc(NC(=O)Nc2cccc(NC(=O)CCl)c2)c1`, the GI50 is greater than 82.5 µM in assay [1]; 58.7 µM in assay [2]; 21.2 µM in assay [3]; 23.6 µM in assay [4]; 12.5 µM in assay [5]; 21.6 µM in assay [6]. In addition, the GI50 is 23.1 µM in assay [7], 37.8 µM in assay [8], greater than 82.5 µM in assay [9] and 15.7 µM in [10]. The TGI is greater than 82.5 µM in [1]; greater than 82.5 µM in assay [2]; greater than 82.5 µM in [3]; greater than 82.5 µM in [4]; 81.4 µM in [5]; 75.2 µM in assay [6]. Also, the TGI was greater than 82.5 µM in assay [7], greater than 82.5 µM in assay [8], greater than 82.5 µM in [9] and 36.2 µM in assay [10].
As for `Cc1ccc(SCN2CCCCC2)cc1` (tested in a mixture with another compound), the TGI in assay [1] turned out to be 72.8 µM; in assay [2] it was 16 µM; in [3], 37.1 µM; in assay [4], 37.3 µM; in assay [5] it was 16.2 µM; in assay [6] it was 36.7 µM. In addition, the TGI in [7] was greater than 100 µM; in [8], 30.2 µM; in assay [9], 29.7 µM; in [10] it was 12.5 µM.
`CN(C)c1ccc(/C=C/C(=O)c2ccc(Nc3nc(Nc4ccc(F)cc4)nc(Nc4ccc(Cl)cc4)n3)cc2)cc1`: the GI50 in assay [1] was 5.03 µM; in assay [2], 4.26 µM; in assay [3], 4.12 µM; in assay [4] it was 4.29 µM; in assay [5], 1.55 µM; in assay [6], 15.6 µM. Further, the GI50 in assay [7] was 1.99 µM; in [8], 2.08 µM; in assay [9], 3.88 µM; in assay [10], 2 µM. The TGI in assay [1] is 35.1 µM; in [2], 18.7 µM; in assay [3], 49.6 µM; in [4] it was 19.1 µM; in [5], 5.23 µM; in assay [6], greater than 100 µM. In addition, the TGI turned out to be 15.1 µM in [7], 5.45 µM in [8], 52.7 µM in [9] and 10.9 µM in [10].
Consider `CCCCc1ccc(C(N)=O)nc1`, for which the GI50 in assay [1] is greater than 100 µM; in [2], greater than 100 µM; in assay [3], 20 µM; in assay [4] it was greater than 100 µM; in assay [5], greater than 100 µM; in assay [6], greater than 100 µM. The GI50 in [7], in assay [8], in assay [9] and in assay [10] was greater than 100 µM throughout. Also, the TGI in [1], in assay [2], in assay [3], in assay [4], in assay [5] and in [6] was greater than 100 µM throughout. For the same compound, the TGI in assay [7], in assay [8], in assay [9] and in assay [10] was greater than 100 µM each time.
With `Cn1c(N)cc(=O)nc1N`, the TGI in assay [1], in assay [2], in [3], in [4], in [5] and in assay [6] was greater than 100 µM in each case. The TGI in assay [7], in assay [8], in [9] and in [10] was greater than 100 µM throughout.
As for `CC(CCC/C=C/CCCN(C)C(=N)N)CC(C)C1OC(=O)C(C)C(O)/C=C/C(C)C(O)C(C)C(O)C(C)C(O)CCCC(O)CC2(O)OC(CC(OC(=O)CC(=O)O)CC(O)CC(O)C(C)C(O)/C=C/C=C/C1C)CC(O)C2O` (centres undefined), the GI50 was 2.45 µM and 4.42 µg/mL in assay [1]; 1.75 µM and 2.42 µg/mL in assay [2]; 2.56 µM and 2.5 µg/mL in assay [3]; 2.51 µM and 9.44 µg/mL in assay [4]; 2.78 µM and 11.1 µg/mL in assay [5]; 6.21 µM and 14.1 µg/mL in [6]. The GI50 in assay [7] was 2.54 µM and 7.93 µg/mL; in assay [8], 3.09 µM and 4.86 µg/mL; in assay [9], 2.04 µM and 2.59 µg/mL; in assay [10], 1.75 µM and 1.48 µg/mL. The TGI in assay [1] was 5.63 µM and 16.8 µg/mL; in assay [2], 3.33 µM and 10.6 µg/mL; in assay [3], 7.84 µM and 12.9 µg/mL; in assay [4], 6.32 µM and 23.9 µg/mL; in assay [5] it was 5.88 µM and 28.4 µg/mL; in assay [6], 24.2 µM and 26.9 µg/mL. Besides, the TGI was 5.88 µM and 19.8 µg/mL in [7]; 11.5 µM and 16 µg/mL in assay [8]; 4.05 µM and 8.56 µg/mL in assay [9]; 3.18 µM and 3.33 µg/mL in assay [10].
As to `CCCCCCn1c(=N)n(CC(O)COc2cccc(C)c2)c2ccccc21` (centres undefined), the GI50 in [1] is 3.47 µM; in assay [2] it was 1.9 µM; in [3] it was 2.63 µM; in assay [4], 1.83 µM; in [5], 2.39 µM; in [6], 3.14 µM. In addition, the GI50 in assay [7] is 2.21 µM; in [8], 2.16 µM; in [9], 1.87 µM; in assay [10], 1.77 µM. Besides, the TGI stood at 13.3 µM in assay [1]; 3.43 µM in assay [2]; 8.27 µM in assay [3]; 3.42 µM in assay [4]; 6.16 µM in [5]; 12.5 µM in assay [6]. In addition, the TGI in [7] is 4.74 µM; in [8], 5.23 µM; in assay [9] it was 3.51 µM; in assay [10], 3.2 µM.
For `COc1ccc(/C=C2\CC(C)CC3C2=NN(C(C)=O)C3c2ccc(OC)c(OC)c2)cc1OC` (centres undefined), the GI50 was 18.7 µM in assay [1]; 11.1 µM in assay [2]; 26.2 µM in assay [3]; 15.1 µM in assay [4]; 12.6 µM in [5]; 18.8 µM in [6]. Also, the GI50 in assay [7] is 23.5 µM; in assay [8] it was 13.8 µM; in assay [9], 21.8 µM; in assay [10], 12.7 µM. The TGI in [1] was 77.8 µM; in assay [2] it was 27.7 µM; in [3] it was 61.3 µM; in assay [4], 28.7 µM; in assay [5], 43.6 µM; in assay [6], greater than 100 µM. Besides, the TGI in assay [7] was greater than 100 µM; in assay [8] it was greater than 100 µM; in [9], 46.9 µM; in assay [10] it was 27.4 µM.
